This assay deals with BDF1 mice, colon carcinoma 38 sc, T/C %. In words: NCI In Vivo Anticancer Drug Screen. Data for tumor model Colon Carcinoma 38 (subcutaneous) in B6D2F1 (BDF1) mice. The method in brief:
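Compound antitumor activity was assessed in mice carrying transplantable tumors. Survival or tumor size was recorded, and each value is the treated-group measurement divided by that of the vehicle-treated control group.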

The mark [1] stands for this setting: endpoint: median tumor weight (est.), dose: 2.5 mg/kg/injection, schedule: Q07DX002 (ip), vehicle: Klucel (hydroxypropylcellulose) (HPC), higher = larger tumour.
[2] abbreviates: endpoint: median tumor weight (est.), dose: 12.5 mg/kg/injection, schedule: Q07DX002 (ip), vehicle: saline with Tween-80, higher = larger tumour.
Setting [3] is: endpoint: median tumor weight (est.), dose: 25.0 mg/kg/injection, schedule: Q07DX002 (ip), vehicle: saline with Tween-80, higher = larger tumour.
Where [4] appears, read: endpoint: median tumor weight (est.), dose: 100.0 mg/kg/injection, schedule: Q07DX002 (ip), vehicle: saline with Tween-80, higher = larger tumour.
Where [5] appears, read: endpoint: median tumor weight (est.), dose: 200.0 mg/kg/injection, schedule: Q07DX002 (ip), vehicle: saline with Tween-80, higher = larger tumour.
The mark [6] stands for this setting: endpoint: median tumor weight (est.), dose: 400.0 mg/kg/injection, schedule: Q07DX002 (ip), vehicle: saline with Tween-80, higher = larger tumour.
The mark [7] stands for this setting: endpoint: median tumor weight (est.), dose: 50.0 mg/kg/injection, schedule: Q07DX002 (ip), vehicle: saline, higher = larger tumour.
The mark [8] stands for this setting: endpoint: median tumor weight (est.), dose: 25.0 mg/kg/injection, schedule: Q07DX002 (ip), vehicle: Klucel (hydroxypropylcellulose) (HPC), higher = larger tumour.
Setting [9] is: endpoint: median tumor weight (est.), dose: 200.0 mg/kg/injection, schedule: Q07DX002 (ip), vehicle: Klucel (hydroxypropylcellulose) (HPC), higher = larger tumour.
[10] abbreviates: endpoint: median tumor weight (est.), dose: 50.0 mg/kg/injection, schedule: Q07DX002 (ip), vehicle: saline with Tween-80, higher = larger tumour.
Setting [11] is: endpoint: median tumor weight (est.), dose: 12.5 mg/kg/injection, schedule: Q07DX002 (ip), vehicle: Klucel (hydroxypropylcellulose) (HPC), higher = larger tumour.

Values joined by “and” are separate entries in the source; they are usually repeats but may differ in a detail not shown here. Identical values can stand only once. Records with an inconclusive call do not appear.

As for `CC(=O)OCC1OC([S-])C(OC(C)=O)C(OC(C)=O)C1OC(C)=O.CC[PH+](CC)CC.CC[PH+](CC)CC.[Au].[Au]` (stereo unspecified), the T/C by setting is: under setting [1], 99 % of control; (endpoint: median tumor weight (est.), dose: 10.0 mg/kg/injection, schedule: Q07DX002 (ip), vehicle: Klucel (hydroxypropylcellulose) (HPC), higher = larger tumour) 89 % of control and 93 % of control.
As for `BrC1c2cccc3cccc(c23)C1Br` (stereo unspecified), the T/C is 103 % of control under setting [2]; 117 % of control and 120 % of control under setting [3]; 97 % of control and 107 % of control under setting [4]; 108 % of control and 111 % of control under setting [5]; 85 % of control under setting [6].
For the compound `COC1OC(CO)C(O)C(NC(=O)N(C)N=O)C1O` (stereo unspecified), the T/C was 113 % of control (endpoint: median tumor weight (est.), dose: 12.5 mg/kg/injection, schedule: Q07DX002 (ip), vehicle: saline, higher = larger tumour); 95 % of control and 102 % of control under setting [7]; 2 % of control and 9 % of control (endpoint: median tumor weight (est.), dose: 800.0 mg/kg/injection, schedule: Q07DX002 (ip), vehicle: saline, higher = larger tumour).
Take `Clc1ccc(C(c2ccc(Cl)cc2)C(Cl)(Cl)Cl)cc1`: the T/C (endpoint: median tumor weight (est.), dose: 4.0 mg/kg/injection, schedule: Q07DX002 (ip), vehicle: Klucel (hydroxypropylcellulose) (HPC), higher = larger tumour) was 123 % of control; the T/C (endpoint: median tumor weight (est.), dose: 8.0 mg/kg/injection, schedule: Q07DX002 (ip), vehicle: Klucel (hydroxypropylcellulose) (HPC), higher = larger tumour) is 94 % of control; the T/C (endpoint: median tumor weight (est.), dose: 16.0 mg/kg/injection, schedule: Q07DX002 (ip), vehicle: Klucel (hydroxypropylcellulose) (HPC), higher = larger tumour) is 112 % of control; the T/C (endpoint: median tumor weight (est.), dose: 32.0 mg/kg/injection, schedule: Q07DX002 (ip), vehicle: Klucel (hydroxypropylcellulose) (HPC), higher = larger tumour) was 122 % of control.
`COc1ccc(-c2cc(=O)c3cccc(CC(=O)O)c3o2)cc1OC`: the T/C was 106 % of control under setting [8]; 117 % of control (endpoint: median tumor weight (est.), dose: 100.0 mg/kg/injection, schedule: Q07DX002 (ip), vehicle: Klucel (hydroxypropylcellulose) (HPC), higher = larger tumour); 82 % of control under setting [9].
Consider `N=[N+]=CC(=O)OCC(N)C(=O)O` (stereo unspecified), for which the T/C is 97 % of control (endpoint: median tumor weight (est.), dose: 3.12 mg/kg/injection, schedule: Q07DX002 (ip), vehicle: water, higher = larger tumour); 159 % of control (endpoint: median tumor weight (est.), dose: 3.12 mg/kg/injection, schedule: Q07DX003 (ip), vehicle: clinical formulation, higher = larger tumour); 117 % of control (endpoint: median tumor weight (est.), dose: 6.25 mg/kg/injection, schedule: Q07DX002 (ip), vehicle: water, higher = larger tumour); 110 % of control (endpoint: median tumor weight (est.), dose: 6.25 mg/kg/injection, schedule: Q07DX003 (ip), vehicle: clinical formulation, higher = larger tumour); 88 % of control (endpoint: median tumor weight (est.), dose: 12.5 mg/kg/injection, schedule: Q07DX003 (ip), vehicle: clinical formulation, higher = larger tumour); 99 % of control (endpoint: median tumor weight (est.), dose: 25.0 mg/kg/injection, schedule: Q07DX002 (ip), vehicle: water, higher = larger tumour). The T/C (endpoint: median tumor weight (est.), dose: 25.0 mg/kg/injection, schedule: Q07DX003 (ip), vehicle: clinical formulation, higher = larger tumour) is 100 % of control and the T/C (endpoint: median tumor weight (est.), dose: 50.0 mg/kg/injection, schedule: Q07DX002 (ip), vehicle: water, higher = larger tumour) is 91 % of control.
As for `O=C1NC(=O)C2C3C=CC(C12)C1C2C(=O)NC(=O)C2C31` (stereo unspecified), under setting [6], the T/C was 29 % of control and 50 % of control.
`NC(=S)Nc1cccc2ccccc12`: the T/C is, setting by setting: (endpoint: median tumor weight (est.), dose: 6.25 mg/kg/injection, schedule: Q07DX002 (ip), vehicle: saline with Tween-80, higher = larger tumour) 164 % of control; under setting [2], 151 % of control; under setting [3], 162 % of control.
`c1ccc([C@H]2CN3CCSC3=N2)cc1`: the T/C is 77 % of control (endpoint: median tumor weight (est.), dose: 10.0 mg/kg/injection, schedule: Q07DX003 (ip), vehicle: saline, higher = larger tumour) and 45 % of control (endpoint: median tumor weight (est.), dose: 40.0 mg/kg/injection, schedule: Q07DX003 (ip), vehicle: saline, higher = larger tumour).
For the compound `C=CCc1cn(C2CC(O)C(CO)O2)c(=O)[nH]c1=O` (stereo unspecified), the T/C (endpoint: median tumor weight (est.), dose: 25.0 mg/kg/injection, schedule: Q07DX002 (ip), vehicle: saline, higher = larger tumour) is 85 % of control; the T/C under setting [7] is 78 % of control; the T/C (endpoint: median tumor weight (est.), dose: 100.0 mg/kg/injection, schedule: Q07DX002 (ip), vehicle: saline, higher = larger tumour) is 62 % of control and 65 % of control.
Turning to `COC1/C=C/O[C@@]2(C)Oc3c(C)c(O)c4c(O)c(cc(O)c4c3C2=O)NC(=O)/C(C)=C\C=C\[C@H](C)C(O)[C@@H](C)[C@@H](O)[C@@H](C)[C@H](OC(C)=O)[C@@H]1C` (stereo partly specified), the T/C is 72 % of control under setting [2]; 79 % of control under setting [10]; 84 % of control under setting [4]; 77 % of control under setting [5]; 98 % of control under setting [6].
Take `CCCCCCCCCCCC(=O)NC1CC(O[C@H]2C[C@](O)(C(=O)CO)Cc3c(O)c4c(c(O)c32)C(=O)c2c(OC)cccc2C4=O)OC(C)C1O` (stereo partly specified): the T/C (endpoint: median survival time, dose: 17.0 mg/kg/injection, schedule: Q07DX003 (iv), vehicle: saline, higher = longer survival) was 97 % of control; the T/C (endpoint: median survival time, dose: 43.0 mg/kg/injection, schedule: Q07DX003 (iv), vehicle: saline, higher = longer survival) is 123 % of control; the T/C (endpoint: median survival time, dose: 70.0 mg/kg/injection, schedule: Q07DX003 (iv), vehicle: saline, higher = longer survival) was 103 % of control; the T/C (endpoint: median tumor weight (est.), dose: 28.7 mg/kg/injection, schedule: Q07DX002 (ip), vehicle: distilled water + Tween-80, higher = larger tumour) is 96 % of control; the T/C (endpoint: median tumor weight (est.), dose: 56.3 mg/kg/injection, schedule: Q07DX002 (ip), vehicle: distilled water + Tween-80, higher = larger tumour) was 101 % of control.
With `CCC[CH2][Hg][Cl]`, the T/C (endpoint: median tumor weight (est.), dose: 0.62 mg/kg/injection, schedule: Q07DX002 (ip), vehicle: Klucel (hydroxypropylcellulose) (HPC), higher = larger tumour) was 99 % of control; the T/C under setting [1] was 92 % of control; the T/C (endpoint: median tumor weight (est.), dose: 5.0 mg/kg/injection, schedule: Q07DX002 (ip), vehicle: Klucel (hydroxypropylcellulose) (HPC), higher = larger tumour) is 105 % of control; the T/C (endpoint: median tumor weight (est.), dose: 20.0 mg/kg/injection, schedule: Q07DX002 (ip), vehicle: Klucel (hydroxypropylcellulose) (HPC), higher = larger tumour) was 113 % of control.
For the compound `N=C(N)c1ccc(/C=C/c2ccc(C(=N)N)cc2)cc1`, the T/C reads like this: under setting [11], 73 % of control; under setting [8], 114 % of control; (endpoint: median tumor weight (est.), dose: 36.0 mg/kg/injection, schedule: Q07DX002 (ip), vehicle: saline with Tween-80, higher = larger tumour) 67 % of control.
As to `COC1C(O)C(C)OC(OC2C(Oc3cccc4c(O)c5c(=O)oc6ccc(C)c7c(=O)oc(c34)c5c67)OC(C)C(O)C2O)C1O` (stereo unspecified), the T/C by setting is: under setting [11], 118 % of control and 108 % of control; under setting [2], 111 % of control; (endpoint: median tumor weight (est.), dose: 12.5 mg/kg/injection, schedule: Q07DX003 (ip), vehicle: Klucel (hydroxypropylcellulose) (HPC), higher = larger tumour) 72 % of control and 92 % of control; under setting [8], 57 % of control; under setting [3], 83 % of control; (endpoint: median tumor weight (est.), dose: 25.0 mg/kg/injection, schedule: Q07DX003 (ip), vehicle: Klucel (hydroxypropylcellulose) (HPC), higher = larger tumour) 103 % of control. The T/C reads like this: under setting [10], 84 % of control; under setting [4], 75 % of control; (endpoint: median tumor weight (est.), dose: 100.0 mg/kg/injection, schedule: Q07DX003 (ip), vehicle: Klucel (hydroxypropylcellulose) (HPC), higher = larger tumour) 88 % of control and 104 % of control; under setting [9], 157 % of control; under setting [5], 107 % of control.
Take `C/C=C/c1cc2c(c(=O)o1)C(=O)[C@@H](O)[C@H](C)O2`: the T/C was 73 % of control and 95 % of control under setting [2]; 61 % of control and 80 % of control under setting [3]; 72 % of control and 76 % of control under setting [10]; 71 % of control and 86 % of control under setting [5].
For `C[C@H](CCC[C@H](C)OS(=O)(=O)c1ccccc1)OS(=O)(=O)c1ccccc1`, the T/C is, setting by setting: under setting [3], 89 % of control and 91 % of control; under setting [10], 91 % of control and 98 % of control; under setting [4], 82 % of control; under setting [5], 120 % of control and 100 % of control; under setting [6], 118 % of control; (endpoint: median tumor weight (est.), dose: 800.0 mg/kg/injection, schedule: Q07DX002 (ip), vehicle: saline with Tween-80, higher = larger tumour) 116 % of control.
Consider `CC[C@]1(O)C[C@H]2CN(CCc3c([nH]c4ccccc34)[C@@](C(=O)OC)(c3cc4c(cc3OC)N(C)[C@H]3[C@@](O)(C(=O)OC)[C@H](OC(C)=O)[C@]5(CC)C=CCN6CC[C@]43[C@@H]65)C2)C1`, for which, under “endpoint: median tumor weight (est.), dose: 4.0 mg/kg/injection, schedule: Q07DX002 (ip), vehicle: saline, higher = larger tumour”, the T/C was 20 % of control and 22 % of control.
In the case of `Cc1nnc2ncccn12`, the T/C runs as follows: under setting [7], 84 % of control and 105 % of control; (endpoint: median tumor weight (est.), dose: 200.0 mg/kg/injection, schedule: Q07DX002 (ip), vehicle: saline, higher = larger tumour) 113 % of control and 102 % of control; (endpoint: median tumor weight (est.), dose: 400.0 mg/kg/injection, schedule: Q07DX002 (ip), vehicle: saline, higher = larger tumour) 81 % of control.

For the origin of these results see PubChem BioAssay AID212 (DTP/NCI, 2004).
